We go through 12 compounds from article PMC9919727 (Molecules, 2023).

Data set [1] deals with Carbonic anhydrase II (bCA II) (Bos taurus, UniProt P00921). In words: CA II inhibition assay (4-nitrophenyl acetate hydrolysis). Type of data set: biochemical, bovine. As to conditions: for inhibition of the enzyme CA II (in words): under the conditions of the assay. Here is the method: For the CA II assay: Carbonic anhydrase II (bCA II, ≥3000 W-A units/mg from bovine erythrocytes) as well as 4-nitrophenyl acetate (4-NA) were purchased from Sigma.
Carbonic anhydrase II (bCA II), sequence (P00921 whole entry): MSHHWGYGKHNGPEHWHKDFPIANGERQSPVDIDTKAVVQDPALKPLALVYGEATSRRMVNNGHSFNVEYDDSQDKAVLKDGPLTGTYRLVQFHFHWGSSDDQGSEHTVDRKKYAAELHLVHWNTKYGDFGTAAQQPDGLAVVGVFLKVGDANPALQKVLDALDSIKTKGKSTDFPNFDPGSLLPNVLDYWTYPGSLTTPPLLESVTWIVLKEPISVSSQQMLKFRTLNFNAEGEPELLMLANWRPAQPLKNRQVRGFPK

The substrate (25 µL, [4-NA] = 0.75 mM, 0.50 mM, 0.25 mM, 0.15 mM) was added to start the enzymatic reaction. […] The relative inhibition was determined as the quotient of the slopes (compound divided by blank) of the linear ranges.

Data set [2] concerns HT29 (colorectal adenocarcinoma). The data set is described as follows: SRB cytotoxicity assay, HT29. The class given is cell-based. As to conditions: Homo sapiens, read-out: EC50 HT29. Here is the method:
(§1) Expression of CA II and its involvement cancer has previously been established for A375 [82], HT29 [83] as well as for MCF-7 cells. Cell line A2780 and non-malignant fibroblasts (NIH 3T3) were employed for comparison.
(§2) NMR spectra were recorded using the Varian spectrometers (Darmstadt, Germany) DD2 and VNMRS (400 and 500 MHz, respectively). MS spectra were taken on a Advion expressionL CMS mass spectrometer (Ithaca, USA; positive ion polarity mode, solvent: methanol, solvent flow: 0.2 mL/min, spray voltage: 5.17 kV, source voltage: 77 V, APCI corona discharge: 4.2 μA, capillary temperature: 250 °C, capillary voltage: 180 V, sheath gas: N2). Thin-layer chromatography was performed on pre-coated silica gel plates supplied by Macherey-Nagel (Düren, Germany). IR spectra were recorded on a Spectrum 1000 FT-IR-spectrometer from Perkin Elmer (Rodgau, Germany). The UV/Vis-spectra were recorded on a Lambda 14 spectrometer from Perkin Elmer (Rodgau, Germany); optical rotations were measured using a JASCO-P2000 instrument (JASCO Germany GmbH, Pfungstadt, Germany) The melting points were determined using the Leica hot stage microscope Galen III (Leica Biosystems, Nussloch, Germany) and are uncorrected. The solvents were dried according to usual procedures. Microanalyses were performed with an Elementar Vario EL (CHNS) instrument (Elementar Analysensysteme GmbH, Elementar-Straße 1, D-63505 Langenselbold, Germany). All dry solvents were distilled over respective drying agents except for DMF which was distilled and stored under argon and molecular sieve. Reactions using air- or moisture-sensitive reagents were carried out under argon atmosphere in dried glassware. Triethylamine was stored over potassium hydroxide. Biological assays were performed as previously reported employing cell lines obtained from the Department of Oncology [Martin-Luther-University Halle Wittenberg; they were bought from ATCC: malignant: A 375, HT29, MCF7, and A2780; non-malignant: NIH 3T3]. Oleanolic and ursolic acid were obtained from Betulinines (Strbrna Skalice, Czech Republic) and used as received. Glycyrrhetinic acid was bought from Orgentis Chemicals GmbH (Gatersleben).
(§3) For the SRB assay: cells were seeded into 96-well plates on day zero at appropriate cell densities to prevent confluence of the cells during the period of the experiment. […] After 72 h of treatment, the supernatant media from the 96-well plates were discarded, then the cells were fixed with 10% trichloroacetic acid and allowed to rest at 4 °C. After 24 h of fixation, the cells were washed in a strip washer and then dyed with SRB solution (200 μL, 10 mM) for 20 min. Then the plates were washed four times with 1% acetic acid to remove the excess of the dye and allowed to air-dry overnight. Tris base solution (200 μL, 10 mM) was added to each well. The absorbance was measured with a 96-well plate reader from Tecan Spectra.
(The SRB assay estimates cell density from bound dye.)

Data set [3] relates to MCF-7 (breast adenocarcinoma). The data set is described as follows: SRB cytotoxicity assay, MCF-7. Type of data set: cell-based. The settings on record: Homo sapiens, read-out: EC50 MCF-7. The method, then:
as §1, §2, §3

Data set [4] relates to A2780 (ovarian carcinoma). The data set is described as follows: SRB cytotoxicity assay, A2780. Type of data set: cell-based. The settings on record: Homo sapiens, read-out: EC50 A2780. The method, then: as §1, §2, §3
Data set [5] relates to A375 (epithelial melanoma). In words: SRB cytotoxicity assay, A375. The settings on record: Homo sapiens, read-out: EC50 A375. The class given is cell-based. Here is the method:
as §1, §2
For the SRB assay: cells were seeded into 96-well plates on day zero at appropriate cell densities to prevent confluence of the cells during the period of the experiment. […] After 72 h of treatment, the supernatant media from the 96-well plates were discarded, then the cells were fixed with 10% trichloroacetic acid and allowed to rest at 4 °C. After 24 h of fixation, the cells were washed in a strip washer and then dyed with SRB solution (200 μL, 10 mM) for 20 min. […] The absorbance was measured with a 96-well plate reader from Tecan Spectra.

Data set [6] deals with NIH 3T3 (non-malignant fibroblasts). In words: SRB cytotoxicity assay, NIH 3T3. The class given is cell-based. The settings on record: Mus musculus, read-out: EC50 NIH 3T3. Here is the method:
as §1, §2, §3

The mark [7] stands for this setting: HT-29, SRB assay, after 72 h of treatment.
Setting [8] is: at 10 µM concentration, read-out: Inhibition [%].
[9] abbreviates: MCF7, SRB assay, after 72 h of treatment.
Setting [10] is: A2780, SRB assay, after 72 h of treatment.
The mark [11] stands for this setting: A-375, SRB assay, after 72 h of treatment.
The mark [12] stands for this setting: NIH3T3, SRB assay, after 72 h of treatment, non-malignant fibroblasts.

The structures appear in SMILES notation. Like-named read-outs stand apart in the source and are kept apart here.

With `C[C@H]1[C@H](C)CC[C@]2(C(=O)O)CC[C@]3(C)C(=CC[C@@H]4[C@@]5(C)CC[C@H](O)C(C)(C)[C@@H]5CC[C@]43C)[C@H]12` [ursolic acid, reference compound], the “inhibition of the enzyme CA II (in words)” value (shortened to “inhibition … (in words)”) in data set [1] is listed as “did not inhibit the enzyme”.

On to `CC(=O)O[C@H]1CC[C@]2(C)[C@H]3CC=C4[C@@H]5CC(C)(C)CC[C@]5(COC(=O)CCC(=O)Nc5nnc(S(N)(=O)=O)s5)CC[C@@]4(C)[C@]3(C)CC[C@H]2C1(C)C` [Compound 18, (3β) 3-(Acetyloxy)olean-12-en-28-yl-4-{[5-(aminosulfonyl)-1,3,4-thiadiazol-2-yl]amino}-4-oxobutanoate], for which the melting point (in general, the temperature, or range, at which the solid turns liquid) is 198 to 200 °C. Besides, the EC50 (commonly the concentration that produces a half-maximal response) in data set [2] (setting [7]) amounted to 14.2 ± 1.4 µM. The inhibition (as a rule, the drop in the measured response relative to a control, in per cent) at 10 µM in data set [1] (setting [8]) was 49.4 ± 0.1%. For the same compound, in data set [3] (setting [9]), the EC50 came out at 10.6 ± 1.4 µM. The 50% effective concentration (EC50) in data set [4] (setting [10]) amounted to 11.8 ± 1.4 µM. In addition, the concentration for a half-maximal effect (EC50) in data set [5] (setting [11]) stood at 10.1 ± 0.8 µM. Also, the concentration giving a half-maximal response (EC50) in data set [6] (setting [12]) was determined as 14 ± 1.5 µM.

Turning to `C=C(C)[C@@H]1CC[C@]2(COC(=O)CCC(=O)O)CC[C@]3(C)[C@H](CC[C@@H]4[C@@]5(C)CC[C@H](OC(C)=O)C(C)(C)[C@@H]5CC[C@]43C)[C@@H]12` [Compound 3, 4-{[(3β)-3-(Acetyloxy)lup-20(29)-en-28-yl]oxy}-4-oxobutanoic Acid], the melting point lay within 189 to 191 °C. Also, the “inhibition rates (CA II)” value in data set [1] is “less than 10%”.

`COc1cccc2c1C(=O)c1c(O)c3c(c(O)c1C2=O)C[C@@](O)(C(=O)CO)C[C@@H]3O[C@H]1C[C@H](N)[C@H](O)[C@H](C)O1` [DX, doxorubicin, reference compound]: the concentration for a half-maximal effect (EC50) in data set [2] (setting [7]) is 0.25 ± 0.02 µM; in data set [3] (setting [9]) it was 0.1 ± 0.01 µM; in data set [4] (setting [10]), 0.1 ± 0.01 µM; in data set [6] (setting [12]), 0.01 ± 0.001 µM.

Turning to `C=C(C)[C@@H]1CC[C@]2(CO)CC[C@]3(C)[C@H](CC[C@@H]4[C@@]5(C)CC[C@H](OC(C)=O)C(C)(C)[C@@H]5CC[C@]43C)[C@@H]12` [Compound 2, 3-O-Acetyl-betulin], in data set [1] (conditions of the assay), the “inhibition rates (CA II)” value is “less than 10%”.

As to `CC1(C)CC[C@]2(C(=O)O)CC[C@]3(C)C(=CC[C@@H]4[C@@]5(C)CC[C@H](O)C(C)(C)[C@@H]5CC[C@]43C)[C@@H]2C1` [oleanolic acid, reference compound], the “inhibition … (in words)” value in data set [1] is given as “did not inhibit the enzyme”.

In turn, `CC(=O)O[C@H]1CC[C@]2(C)[C@H]3CC=C4[C@@H]5[C@@H](C)[C@H](C)CC[C@]5(COC(=O)CCC(=O)Nc5nnc(S(N)(=O)=O)s5)CC[C@@]4(C)[C@]3(C)CC[C@H]2C1(C)C` [Compound 19, (3β)-3-(Acetyloxy)urs-12-en-28-yl-4-{[5-(aminosulfonyl)-1,3,4-thiadiazol-2-yl]amino}4-oxobutanoate] had a melting point of 190 to 192 °C. The concentration for a half-maximal effect (EC50) in data set [2] (setting [7]) worked out at 15 ± 0.6 µM. Further, in data set [1] (CA II, Dixon plot, read-out: Ki), the inhibition constant Ki (commonly a measure of affinity in units of concentration, obtained from inhibition or displacement) was found to be 0.91 ± 0.17 µM. For the same compound, in data set [1] (setting [8]), the inhibition at 10 µM was found to be 70.8 ± 0.2%. Also, the EC50 in data set [3] (setting [9]) was 12.4 ± 0.8 µM. For the same compound, the EC50 in data set [4] (setting [10]) came out at 12.5 ± 1.7 µM. Besides, the 50% effective concentration (EC50) in data set [5] (setting [11]) worked out at 13.7 ± 1.1 µM. In addition, the EC50 in data set [6] (setting [12]) was 14.8 ± 1.5 µM.

`CC(=O)O[C@H]1CC[C@]2(C)[C@H]3C(=O)C=C4[C@@H]5C[C@@](C)(COC(=O)CCC(=O)Nc6nnc(S(N)(=O)=O)s6)CC[C@]5(C)CC[C@@]4(C)[C@]3(C)CC[C@H]2C1(C)C` [Compound 20, (3β, 20β) 3-(Acetyloxy)-11-oxoolean-12-en-30-yl-4-{[5-(aminosulfonyl)-1,3,4-thiadiazol-2-yl]amino}-4-oxobutanoate] gave a melting point of 179 to 181 °C. For the same compound, in data set [2] (setting [7]), the EC50 was found to be 13 ± 1.3 µM. Moreover, the inhibition at 10 µM in data set [1] (setting [8]) was determined as 96.8 ± 0.2%. Moreover, the EC50 in data set [3] (setting [9]) was determined as 10.5 ± 1.2 µM. Also, the concentration for a half-maximal effect (EC50) in data set [4] (setting [10]) came to 9.8 ± 0.8 µM. Moreover, the concentration giving a half-maximal response (EC50) in data set [5] (setting [11]) was found to be 9.2 ± 0.5 µM. For the same compound, the 50% effective concentration (EC50) in data set [6] (setting [12]) is 11.9 ± 1.7 µM.

As to `C=C(C)[C@@H]1CC[C@]2(COC(=O)CCC(=O)Nc3nnc(S(N)(=O)=O)s3)CC[C@]3(C)[C@H](CC[C@@H]4[C@@]5(C)CC[C@H](OC(C)=O)C(C)(C)[C@@H]5CC[C@]43C)[C@@H]12` [Compound 6, (3β)-3-(Acetyloxy)lup-20(29)-en-28-yl 4-{[5-(aminosulfonyl)-1,3,4-thiadiazol-2-yl]amino}-4-oxobutanoate], the EC50 in data set [2] (HT-29, 72 h) was found to be 10.2 ± 1.3 µM; in data set [3] (MCF7, 72 h), 8.9 ± 0.7 µM; in data set [4] (A2780, 72 h) it was 9.3 ± 1.2 µM; in data set [5] (A-375, 72 h) it was 8.5 ± 0.7 µM; in data set [6] (NIH3T3, 72 h), 9.5 ± 1 µM. Moreover, the Ki in data set [1] amounted to 0.129 ± 0.02 µM. The same compound yielded an inhibition at 10 µM in data set [1] of 93 ± 0.1%. Further, the “mode of inhibition of CA II” value in data set [1] is recorded as “competitive inhibitor”.

Take `C=C(C)[C@@H]1CC[C@]2(C(=O)O)CC[C@]3(C)[C@H](CC[C@@H]4[C@@]5(C)CC[C@H](O)C(C)(C)[C@@H]5CC[C@]43C)[C@@H]12` [betulinic acid, reference compound]: in data set [1], the “inhibition … (in words)” value is listed as “did not inhibit the enzyme”.

Regarding `C=C(C)[C@@H]1CC[C@]2(CO)CC[C@]3(C)[C@H](CC[C@@H]4[C@@]5(C)CC[C@H](O)C(C)(C)[C@@H]5CC[C@]43C)[C@@H]12` [betulin, reference compound], the “inhibition … (in words)” value in data set [1] is listed as “did not inhibit the enzyme”.

For `CC1(C)[C@@H](O)CC[C@]2(C)[C@H]3C(=O)C=C4[C@@H]5C[C@@](C)(C(=O)O)CC[C@]5(C)CC[C@@]4(C)[C@]3(C)CC[C@@H]12` [glycyrrhetinic acid, reference compound], the “inhibition … (in words)” value in data set [1] is reported as “did not inhibit the enzyme”.
